The source of these data is patent US7662856B2, “Compositions having antimycrobial activity including a hydroxamate or a hydroxamate and a hydroxlyamine” (The University of Houston System, priority 2003, dated 2010).

As a reminder, the melting point is the temperature, or range, at which the solid turns liquid. The term Ki denotes a dissociation constant, usually derived from enzyme kinetics or from competition with a known ligand. As a reminder, the inhibition is the share of the control response that was lost under treatment.

Data set [1] relates to M. tuberculosis. Briefly: microbe, parasite or virus in culture. Type of data set: cell-based. The conditions noted are these: Mycobacterium tuberculosis.
The target in data set [2] is T1, alanine racemase enzyme from S. aureus (Staphylococcus aureus, UniProt P63479).
T1 sequence (P63479 1-382): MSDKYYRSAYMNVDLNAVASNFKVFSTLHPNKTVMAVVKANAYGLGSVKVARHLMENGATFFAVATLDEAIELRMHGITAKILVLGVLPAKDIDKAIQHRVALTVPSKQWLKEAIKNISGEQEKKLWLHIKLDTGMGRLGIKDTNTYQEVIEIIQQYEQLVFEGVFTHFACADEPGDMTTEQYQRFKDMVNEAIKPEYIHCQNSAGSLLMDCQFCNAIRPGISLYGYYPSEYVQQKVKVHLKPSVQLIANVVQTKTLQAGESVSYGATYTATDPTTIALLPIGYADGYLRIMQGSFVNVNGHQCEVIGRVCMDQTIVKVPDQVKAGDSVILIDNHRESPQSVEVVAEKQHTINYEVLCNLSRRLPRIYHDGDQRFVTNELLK
The experiment in a line: biochemical. The conditions noted are these: for inhibition at 2500 µM: read-out: In % (percent inhibition of alanine racemase).

In data set [3] the target is alanine racemase enzyme from E. Coli (Escherichia coli, UniProt P0A6B4). The experiment in a line: biochemical. The conditions noted are these: for inhibition at 2500 µM: read-out: In % (percent inhibition of alanine racemase).
Sequence of alanine racemase enzyme from E. Coli (P0A6B4 whole entry): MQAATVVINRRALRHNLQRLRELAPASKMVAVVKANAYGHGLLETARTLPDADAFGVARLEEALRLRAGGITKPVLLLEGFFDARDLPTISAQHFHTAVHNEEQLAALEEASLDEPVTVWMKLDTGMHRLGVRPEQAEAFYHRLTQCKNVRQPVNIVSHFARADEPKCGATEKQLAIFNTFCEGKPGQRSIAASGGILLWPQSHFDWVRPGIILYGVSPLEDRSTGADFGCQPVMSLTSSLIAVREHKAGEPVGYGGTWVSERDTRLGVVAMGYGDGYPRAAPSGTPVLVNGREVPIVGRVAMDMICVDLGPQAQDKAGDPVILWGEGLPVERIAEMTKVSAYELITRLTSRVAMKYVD
The target of data set [4] is alanine racemase enzyme from M. tuberculosis (Mycobacterium tuberculosis, UniProt P9WQA9, DEL103-104). It counts as biochemical.
Sequence of alanine racemase enzyme from M. tuberculosis (P9WQA9 whole entry, looked up, stated change not applied): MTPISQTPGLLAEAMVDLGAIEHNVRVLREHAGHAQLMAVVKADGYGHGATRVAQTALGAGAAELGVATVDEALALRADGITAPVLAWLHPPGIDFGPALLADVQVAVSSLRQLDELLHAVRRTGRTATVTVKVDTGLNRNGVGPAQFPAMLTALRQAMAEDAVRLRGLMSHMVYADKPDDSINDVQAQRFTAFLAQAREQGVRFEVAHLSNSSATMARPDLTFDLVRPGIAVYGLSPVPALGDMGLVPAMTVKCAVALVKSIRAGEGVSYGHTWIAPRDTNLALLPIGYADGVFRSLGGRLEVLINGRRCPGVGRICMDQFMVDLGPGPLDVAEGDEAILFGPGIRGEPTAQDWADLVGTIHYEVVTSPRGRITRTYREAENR
The test system of the next data set is E. Coli. Briefly: microbe, parasite or virus in culture. As to conditions: Escherichia coli. It counts as cell-based.
The next data set relates to S. aureus. Briefly: microbe, parasite or virus in culture. It counts as cell-based. The conditions noted are these: Staphylococcus aureus.
Data set [5] has as its system M. tuberculosis. It counts as cell-based.
In data set [6] the target is alanine racemase enzyme from P. aeruginosa (Pseudomonas aeruginosa, UniProt Q9HTQ2, A178S/N326M/S138R/S262R). The experiment in a line: biochemical. The conditions noted are these: for inhibition at 2500 µM: read-out: In % (percent inhibition of alanine racemase).
Sequence of alanine racemase enzyme from P. aeruginosa (Q9HTQ2 whole entry S138R/A178S/S262R/N326M): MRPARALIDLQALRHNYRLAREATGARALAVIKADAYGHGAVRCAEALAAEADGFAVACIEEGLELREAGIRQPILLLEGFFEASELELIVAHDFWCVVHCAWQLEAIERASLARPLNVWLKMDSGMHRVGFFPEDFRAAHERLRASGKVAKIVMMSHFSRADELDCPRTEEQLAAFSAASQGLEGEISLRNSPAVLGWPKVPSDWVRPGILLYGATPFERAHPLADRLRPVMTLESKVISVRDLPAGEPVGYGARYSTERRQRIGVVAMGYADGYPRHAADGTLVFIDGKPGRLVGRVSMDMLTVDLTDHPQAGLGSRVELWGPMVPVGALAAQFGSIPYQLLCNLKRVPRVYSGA

Each structure is given as a SMILES string. Converted amounts (≈) assume the structure as drawn. Read-outs that look alike come from different tables or passages of the source. Some results are limits rather than exact numbers.

The compound `CNCC(=O)NO` [CH3NHCH2C(O)NHOH, Sarcosine Hydroxamic Acid] yielded a melting point of 140 to 141 °C. This compound also showed an MIC in the data set on M. tuberculosis [1] of 200 µg/mL (≈ 1920 µM). For the same compound, the inhibition constant (Ki) in data set [2] (S. aureus ALR, read-out: Ki) came out at 14.3 mM. Also, in data set [2], the inhibition at 2500 µM worked out at 28 ± 5%. Also, in [3], the Ki was found to be 5.7 mM and the inhibition at 2500 µM is 34 ± 12%. Moreover, in [4], the “% In in TB-ALR-assay” value is listed as 81% and the “In % (percent inhibition of alanine racemase)” value was 81 ± 7%. The compound further came in with an MIC with E. Coli of over 5 mM. Moreover, the MIC against S. aureus was over 5 mM. Further, in the data set on M. tuberculosis [5], the “Days of Detection” value turned out to be 32.5 days. Also, in data set [6], the Ki is 18.2 mM and the inhibition at 2500 µM was determined as 24 ± 5%.
In turn, `Cl.NCCC(=O)NO` [HCl•H2NCH2CH2C(O)NHOH, β-Alanine Hydroxamic Acid Hydrochloride] returned a melting point of 140 to 142 °C. In the data set with M. tuberculosis [1], this compound came in with an MIC of over 200 µg/mL. The compound further registered an inhibition constant Ki in data set [2] (Ki) of 0.401 mM. For the same compound, the inhibition at 2500 µM in data set [2] came to 49 ± 12%. In [3], affinity was put at a Ki of 1.21 mM and the inhibition at 2500 µM was determined as 37 ± 10%. Moreover, in data set [4], the “% In in TB-ALR-assay” value was found to be 79% and the “In % (percent inhibition of alanine racemase)” value was determined as 79 ± 12%. Besides, the MIC in the data set with E. Coli was over 5 mM. This compound returned an MIC in the data set on S. aureus of over 5 mM. In addition, in the data set on M. tuberculosis [5], the “Days of Detection” value is 8.5 days. In data set [6], the Ki is 0.894 mM and the inhibition at 2500 µM is 34 ± 9%.
